According to patent US8383139B2 (Bayer CropScience AG, priority 2008, dated 2013):

How the values were obtained:
Uromyces appendiculatus = assay: Uromyces test (beans)/protective; format: in vivo; conditions: 240 h, 100 ppm active substance, protective, evaluation 10 days after inoculation, read-out: degree of effectiveness
Method: (§1) • Solvents: 24.5 parts by weight of acetone • 24.5 parts by weight of dimethylacetamide • Emulsifier: 1 part by weight of alkylaryl polyglycol ether (polyoxyethylene (16) tristearylphenyl ether)
(§2) To prepare a suitable active substance composition, 1 part by weight of active substance is mixed with the given amounts of solvents and emulsifier and the concentrate is diluted to the desired concentration using water.
For the testing of protective effectiveness, young plants are sprayed with the active substance composition in the application rate given. After the spray coating has been dried on, the plants are inoculated with an aqueous suspension of the spores of the bean rust pathogen Uromyces appendiculatus and then remain in an incubation chamber at approximately 20° C. and 100% relative humidity for 1 day.
The plants are then placed in a greenhouse at approximately 21° C. and a relative humidity of approximately 90%.
Evaluation is carried out 10 days after the inoculation. In this connection, 0% means a degree of effectiveness corresponding to that of the control, while a degree of effectiveness of 100% means that no infestation is observed.

Sphaerotheca fuliginea = assay: Sphaerotheca test (cucumber)/protective; format: in vivo; conditions: Podosphaera fuliginea, 168 h, 500 ppm active substance, protective, evaluation 7 days after inoculation, read-out: degree of effectiveness
Method: • Solvents: 49 parts by weight of N,N-dimethylformamide • Emulsifier: 1 part by weight of alkylaryl polyglycol ether (polyoxyethylene (16) tristearylphenyl ether) To prepare a suitable active substance composition, 1 part by weight of active substance is mixed with the given amounts of solvents and emulsifier and the concentrate is diluted to the desired concentration using water. For the testing of protective effectiveness, young cucumber plants are sprayed with the active substance composition in the application rate given. One day after the treatment, the plants are inoculated with a suspension of spores of Sphaerotheca fuliginea. Subsequently, the plants are placed in a greenhouse at 70% relative humidity and at a temperature of 23° C. Evaluation is carried out 7 days after the inoculation. In this connection, 0% means a degree of effectiveness corresponding to that of the control, while a degree of effectiveness of 100% means that no infestation is observed.

Alternaria solani = assay: Alternaria test (tomato)/protective; format: in vivo; conditions: 72 h, 100 ppm active substance, protective, evaluation 3 days after inoculation, read-out: degree of effectiveness
Method: as §1, §2
For the testing of protective effectiveness, young plants are sprayed with the active substance composition in the application rate given. After the spray coating has been dried on, the plants are inoculated with an aqueous suspension of spores of Alternaria solani. The plants are then placed in an incubation chamber at approximately 20° C. and 100% relative humidity.
Evaluation is carried out 3 days after the inoculation. In this connection, 0% means a degree of effectiveness corresponding to that of the control, while a degree of effectiveness of 100% means that no infestation is observed.

[1] = log P by HPLC on reversed-phase columns (C 18), EEC Directive 79/831 Annex V.A8; format: physicochemical; conditions: reversed-phase C18 HPLC column, pH 2.3, [a] HPLC, acid region pH 2.3, 0.1% aqueous phosphoric acid and acetonitrile; read-out: log p
Septoria tritici = Septoria tritici test (wheat)/protective; format: in vivo; conditions: Zymoseptoria tritici, 504 h, 500 ppm active substance, protective, evaluation 21 days after inoculation, read-out: degree of effectiveness
Method: • Solvent: 50 parts by weight of N,N-dimethylacetamide • Emulsifier: 1 part by weight of alkylaryl polyglycol ether (polyoxyethylene (16) tristearylphenyl ether) To prepare a suitable active substance composition, 1 part by weight of active substance is mixed with the given amounts of solvent and emulsifier and the concentrate is diluted to the desired concentration using water. For the testing of protective effectiveness, young plants are sprayed with the active substance composition at the application rate given. After the spray coating has dried on, the plants are sprayed with a suspension of spores of Septoria tritici. The plants remain in an incubation chamber at 20° C. and 100% relative humidity for 48 hours. The plants are afterwards placed under a transparent hood at 15° C. and 100% relative humidity for a further 60 hours. The plants are placed in a greenhouse at a temperature of approximately 15° C. and a relative humidity of 80%. Evaluation is carried out 21 days after the inoculation. In this connection, 0% means a degree of effectiveness corresponding to that of the control, while a degree of effectiveness of 100% means that no infestation is observed.

Puccinia triticina = Puccinia triticina test (wheat)/protective; format: in vivo; conditions: 192 h, 500 ppm active substance, protective, evaluation 8 days after inoculation, read-out: degree of effectiveness
Method: • Solvent: 50 parts by weight of N,N-dimethylacetamide • Emulsifier: 1 part by weight of alkylaryl polyglycol ether (polyoxyethylene (16) tristearylphenyl ether) To prepare a suitable active substance composition, 1 part by weight of active substance is mixed with the given amounts of solvent and emulsifier and the concentrate is diluted to the desired concentration using water. For the testing of protective effectiveness, young plants are sprayed with the active substance composition in the application rate given. After the spray coating has been dried on, the plants are sprayed with spores with a suspension of spores of Puccinia triticina. The plants remain in an incubation chamber at 20° C. and 100% relative humidity for 48 hours. The plants are placed in a greenhouse at a temperature of approximately 20° C. and a relative humidity of approximately 80%. Evaluation is carried out 8 days after the inoculation. In this connection, 0% means a degree of effectiveness corresponding to that of the control, while a degree of effectiveness of 100% means that no infestation is observed.

SMILES	chromatographic logP [1]	pest or weed control at 100 ppm (Uromyces appendiculatus)	pest or weed control at 500 ppm (Sphaerotheca fuliginea)	pest or weed control at 100 ppm (Alternaria solani)	pest or weed control at 500 ppm (Septoria tritici)	pest or weed control at 500 ppm (Puccinia triticina)
CCC(c1ccccc1)c1nsc(Oc2cc(C)c(N=CN(C)CC)cc2C)n1 (stereo not shown) [Example 6, N′-(2,5-dimethyl-4-{[3-(1-phenylpropyl)-1,2,4-thiadiazol-5-yl]oxy}phenyl)-N-ethyl-N-methylimidoformamide]	2.08	≥ 70%	≥ 70%	≥ 70%	≥ 70%	≥ 70%
CCC(c1ccccc1)c1nsc(Oc2cc(C)c(N=CN3CCCCC3)cc2C)n1 (stereo not shown) [Example 7, 2,5-dimethyl-4-{[3-(1-phenylpropyl)-1,2,4-thiadiazol-5-yl]oxy}-N-(piperidin-1-ylmethylidene)aniline]	2.21	≥ 70%	≥ 70%	≥ 70%	≥ 70%	≥ 70%
Cc1cc(Oc2nc(Cc3ccc(Cl)cc3)ns2)c(C)cc1N=CN(C)C(C)C [Example 9, N′-(4-{[3-(4-chlorobenzyl)-1,2,4-thiadiazol-5-yl]oxy}-2,5-dimethylphenyl)-N-methyl-N-(propan-2-yl)imidoformamide]	2.03	≥ 70%	≥ 70%	≥ 70%	≥ 70%	≥ 70%
CCN(C)C=Nc1cc(C)c(Oc2nc(Cc3cccc(C(F)(F)F)c3)ns2)cc1C [Example 10, N′-[2,5-dimethyl-4-({3-[3-(trifluoromethyl)benzyl]-1,2,4-thiadiazol-5-yl}oxy)phenyl]-N-ethyl-N-methylimidoformamide]	2.05	≥ 70%	≥ 70%	≥ 70%	≥ 70%	≥ 70%
Cc1cc(Oc2nc(Cc3ccccc3C(F)(F)F)ns2)c(C)cc1N=CN1CCCCC1 [Example 43, 2,5-dimethyl-N-(piperidin-1-ylmethylidene)-4-({3-[2-(trifluoromethyl)benzyl]-1,2,4-thiadiazol-5-yl}oxy)aniline]	2.15	≥ 70%	≥ 70%	≥ 70%		≥ 70%
Cc1cc(Oc2nc(C3(c4ccc(Cl)cc4)CC3)ns2)c(Cl)cc1N=CN1CCCCC1 [Example 44, 5-chloro-4-({3-[1-(4-chlorophenyl)cyclopropyl]-1,2,4-thiadiazol-5-yl}oxy)-2-methyl-N-(piperidin-1-ylmethylidene)aniline]	2.76		≥ 70%	≥ 70%	≥ 70%	≥ 70%
Cc1cc(Oc2nc(Cc3ccc4c(c3)OCO4)ns2)c(C)cc1N=CN1CCCCC1 [Example 45, 4-{[3-(1,3-benzodioxol-5-ylmethyl)-1,2,4-thiadiazol-5-yl]oxy}-2,5-dimethyl-N-(piperidin-1-ylmethylidene)aniline]	1.84		≥ 70%	≥ 70%	≥ 70%	≥ 70%
CCN(C)C=Nc1cc(C)c(Oc2nc(Cc3ccc4c(c3)OCO4)ns2)cc1C [Example 46, N′-(4-{[3-(1,3-benzodioxol-5-ylmethyl)-1,2,4-thiadiazol-5-yl]oxy}-2,5-dimethylphenyl)-N-ethyl-N-methylimidoformamide]	1.65		≥ 70%	≥ 70%	≥ 70%	≥ 70%

Second part, led by results:

chromatographic logP [1]	SMILES	pest or weed control at 100 ppm (Uromyces appendiculatus)	pest or weed control at 500 ppm (Sphaerotheca fuliginea)	pest or weed control at 100 ppm (Alternaria solani)	pest or weed control at 500 ppm (Septoria tritici)	pest or weed control at 500 ppm (Puccinia triticina)
1.95	Cc1cc(Oc2nc(C(C)c3ccccc3)ns2)c(C)cc1N=CN1CCCCC1 (stereo not shown) [Example 8, 2,5-dimethyl-4-{[3-(1-phenylethyl)-1,2,4-thiadiazol-5-yl]oxy}-N-(piperidin-1-ylmethylidene)aniline]	≥ 70%	≥ 70%	≥ 70%	≥ 70%	≥ 70%
2.52	Cc1cc(Oc2nc(C(C)c3ccc(Cl)cc3)ns2)c(Cl)cc1N=CN(C)C(C)C (stereo not shown) [Example 22, N′-[5-chloro-4-({3-[1-(4-chlorophenyl)ethyl]-1,2,4-thiadiazol-5-yl}oxy)-2-methylphenyl]-N-methyl-N-(propan-2-yl)imidoformamide]	≥ 70%		≥ 70%		≥ 70%
2.71	Cc1cc(Oc2nc(C(C)(C)c3ccc(Cl)cc3)ns2)c(C)cc1N=CN(C)C(C)C [Example 27, N′-[4-({3-[2-(4-chlorophenyl)propan-2-yl]-1,2,4-thiadiazol-5-yl}oxy)-2,5-dimethylphenyl]-N-methyl-N-(propan-2-yl)imidoformamide]	≥ 70%	≥ 70%	≥ 70%		
2.96	Cc1cc(Oc2nc(C(C)(C)c3ccc(Cl)cc3)ns2)c(Cl)cc1N=CN1CCCCC1 [Example 29, 5-chloro-4-({3-[2-(4-chlorophenyl)propan-2-yl]-1,2,4-thiadiazol-5-yl}oxy)-2-methyl-N-(piperidin-1-ylmethylidene)aniline]		≥ 70%	≥ 70%	≥ 70%	≥ 70%
2.6	Cc1cc(Oc2nc(C3(c4ccc(Cl)cc4)CC3)ns2)c(C)cc1N=CN1CCCCC1 [Example 38, 4-({3-[1-(4-chlorophenyl)cyclopropyl]-1,2,4-thiadiazol-5-yl}oxy)-2,5-dimethyl-N-(piperidin-1-ylmethylidene)aniline]		≥ 70%	≥ 70%	≥ 70%	≥ 70%
2.57	Cc1cc(Oc2nc(C3(c4ccc(Cl)cc4)CC3)ns2)c(C)cc1N=CN(C)C(C)C [Example 39, N′-[4-({3-[1-(4-chlorophenyl)cyclopropyl]-1,2,4-thiadiazol-5-yl}oxy)-2,5-dimethylphenyl]-N-methyl-N-(propan-2-yl)imidoformamide]		≥ 70%	≥ 70%	≥ 70%	≥ 70%
